Measured values taken from patent US11390621B2, “Chiral indole compounds and their use” (ARIAGEN, INC., priority 2019, dated 2022).
Where “and” joins values, the source holds several entries; their conditions need not be identical. Identical values can stand only once. Like-named read-outs stand apart in the source and are kept apart here.

Experiments:
[1] = Hepatocyte intrinsic clearance assay (metabolic stability), rat hepatocytes; type: in vitro ADME; conditions: rat, cryopreserved hepatocytes, Rat Hepatocytes, 1 μM test compound
Summary of the method: (§1)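 Cryopreserved pooled hepatocytes (1×10^6 cells/mL final) incubated with 1 μM compound at 37 °C, 5% CO2; samples at 0–120 min quenched in acetonitrile, analysed by LC-MS in duplicate. t1/2 and CLint from ln(% remaining) vs time slope; CLH via well-stirred liver model (fu=1) and EH derived from it.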

rat hepatocytes = experiment: as above; type: in vitro ADME; conditions: for EH (hepatic extraction ratio): Rat Hepatocytes, well stirred liver model, fu=1
Summary of the method: as §1

[2] = Hepatocyte intrinsic clearance assay (metabolic stability), human hepatocytes; type: in vitro ADME; conditions: male, human, cryopreserved pooled hepatocytes, Human Hepatocytes, 1 μM test compound
Summary of the method: as §1

human hepatocytes = experiment: as above; type: in vitro ADME; conditions: Human Hepatocytes; well stirred liver model, fu=1
Summary of the method: as §1

[3] = In vivo pharmacokinetic studies in rats; parameters: species or system SD rats; conditions: rats; for AUC(0-t): read-out: AUClast; for Tmax at 1 day: read-out: Tmax
Experimental: This example describes pharmacokinetic (PK) studies of ARI-164, ARI-165, ARI-186, ARI-224, and ARI-226 in mice and rats. In the present studies, the test compounds were given to groups of mice and/or rats (N=3 in each group), intravenously (IV) at 2 mg/kg or orally (PO) at 10, 30, or 40 mg/kg. ARI-186, ARI-224 and ARI-226 were given orally to rats QD for 5 days at 10 mg/kg to assess whether decreased susceptibility to CYP1A1/1A2 metabolism would lead to increased accumulation. IV doses were formulated in DMSO, while PO doses were formulated in a 50/50 mixture of PEG400 and Tween 80 (single dose mouse and rat studies for ARI-164, ARI-165, ARI-186, ARI-224, ARI-226) or PEG400/Kolliphor HS15/Oleic Acid 45/45/10 (ARI-164 repeat dose rat study). Blood samples were collected at pre-dose and over a period of 24 hours post-dose. Plasma concentrations of the test compounds were determined by HPLC.

[4] = SD, rat, plasma, po, 10 mg/kg, repeat 10 mg/kg PO QD, Day 5, Mean
[5] = SD, rat, plasma, po, 10 mg/kg, repeat 10 mg/kg PO QD, Day 5, individual animal
[6] = Sprague-Dawley (SD), rat, plasma, po, 10 mg/kg, repeat 10 mg/kg PO QD, Day 1, Mean of 3 animals
[7] = Sprague-Dawley, rat, plasma, po, 10 mg/kg, repeat 10 mg/kg PO QD, Day 1, individual animal
[8] = Sprague-Dawley, rat, plasma, po, 10 mg/kg, repeat 10 mg/kg PO QD, Day 5, Mean
[9] = repeat 10 mg/kg PO QD, Day 1, individual animal
[10] = repeat 10 mg/kg PO QD, Day 5, individual animal

SMILES: N[C@@H](c1csc(C(=O)c2c[nH]c3cc(F)ccc23)n1)C(F)(F)F [ARI-224]
- half-life at 1 μM [1]: 1.9 h
- hepatocyte CLint at 1 μM [1]: 6.12 µL/min/1e6 cells
- EH (hepatic extraction ratio) (rat hepatocytes): 29.0%
- CLint lower than that of ARI-164 (fold) (rat hepatocytes; rat hepatocytes): slightly lower
- half-life at 1 μM [2]: 3 h
- hepatocyte CLint at 1 μM [2]: 3.85 µL/min/1e6 cells
- EH (hepatic extraction ratio) (human hepatocytes): 15.8%
- AUC(0-inf) [3, 4]: 8.24 ng·h/mL
- MRT inf at 5 days [3, 4]: 1.95 h
- half-life at 5 days [3, 4]: 1.28 h
- AUC(0-inf) [3, 5]: 8.24 ng·h/mL
- MRT inf at 5 days [3, 5]: 1.95 h
- half-life at 5 days [3, 5]: 1.28 h
- AUC(0-inf) [3, 6]: 2680 ng·h/mL
- Cmax at 1 day [3, 6]: 792 ng/mL
- MRT inf at 1 day [3, 6]: 2.79 h
- MRT last at 1 day [3, 6]: 2.48 h
- half-life at 1 day [3, 6]: 1.55 h
- AUC(0-t) [3, 6]: 2600 ng·h/mL
- Tmax at 1 day [3, 6]: 1.33 h
- Cmax at 1 day [3, 7]: 699 ng/mL
- MRT inf at 1 day [3, 7]: 3.23 h
- MRT last at 1 day [3, 7]: 2.66 h
- half-life at 1 day [3, 7]: 2.05 h
- Tmax at 1 day [3, 7]: 1 h
- Cmax at 5 day [3, 8]: 5.96 ng/mL
- MRT last at 5 day [3, 8]: 4.56 h
- Tmax at 5 day [3, 8]: 0.333 h
- AUC(0-t) [3, 8]: 11.4 ng·h/mL
- Tmax at 5 day ([3]; Sprague-Dawley, rat, plasma, po, 10 mg/kg, repeat 10 mg/kg PO QD, Day 5, individual animal): 0.5 h
- behaviour of exposure after 5 days of repeat dosing (in words) ([3]; 10 mg/kg PO QD for 5 days): increased elimination
- AUCinf [3, 9]: 2140 ng·h/mL and 4070 ng·h/mL and 1840 ng·h/mL
- AUClast [3, 9]: 1990 ng·h/mL and 4030 ng·h/mL and 1770 ng·h/mL
- Cmax [3, 9]: 1090 ng/mL and 587 ng/mL
- MRTinf [3, 9]: 2.48 h and 2.66 h
- MRTlast [3, 9]: 2.42 h and 2.36 h
- T1/2 [3, 9]: 1.04 h and 1.57 h
- Tmax [3, 9]: 2 h
- AUClast [3, 10]: 11.9 ng·h/mL and 14.9 ng·h/mL and 7.28 ng·h/mL
- Cmax [3, 10]: 5.53 ng/mL and 8.36 ng/mL and 3.98 ng/mL
- MRTlast [3, 10]: 3.29 h and 8.95 h and 1.44 h
- Tmax [3, 10]: 0.25 h

SMILES: NC1(c2csc(C(=O)c3c[nH]c4cc(F)ccc34)n2)CC1 [ARI-225, (4-(1-aminocyclopropyl)thiazol-2-yl)(6-fluoro-1H-indol-3-yl)methanone]
- half-life at 1 μM [1]: 0.5 h
- hepatocyte CLint at 1 μM [1]: 23.2 µL/min/1e6 cells
- EH (hepatic extraction ratio) (rat hepatocytes): 60.8%
- half-life at 1 μM [2]: 2.3 h
- hepatocyte CLint at 1 μM [2]: 4.96 µL/min/1e6 cells
- EH (hepatic extraction ratio) (human hepatocytes): 17.8%

SMILES: N[C@H](c1csc(C(=O)c2c[nH]c3cc(F)ccc23)n1)C(F)(F)F [ARI-223]
- half-life at 1 μM [1]: 0.5 h
- hepatocyte CLint at 1 μM [1]: 25.6 µL/min/1e6 cells
- EH (hepatic extraction ratio) (rat hepatocytes): 63.1%
- half-life at 1 μM [2]: 1 h
- hepatocyte CLint at 1 μM [2]: 11.6 µL/min/1e6 cells
- EH (hepatic extraction ratio) (human hepatocytes): 23.7%
